Source: patent US11723890B2, “Methods of treatment using an mTORC1 modulator” (Navitor Pharmaceuticals, Inc., priority 2019, dated 2023)
“Also recorded” adds a separate entry of the source. Marks after values point to notes of the source that are not given here.

Legend:
[1] = test system: CSF neurotransmitter metabolites; assay: Example 2: CSF neurotransmitter metabolomics after a single dose; format: in vivo, human; settings: healthy males; for 1-methyl-4-imidazoleacetate, CSF, ratio relative to baseline / Carboxyethyl-GABA, CSF, ratio relative to baseline / Homovanillate (HVA), CSF, ratio relative to baseline / Hydroxyindoleacetic acid (HIAA), CSF, ratio relative to baseline: single 2400 mg, n = 12
Description: Exploratory Objective(s): The exploratory objectives of this study were as follows using CSF and plasma samples collected over the same time frame as the PK samples: • conducted unbiased metabolomic analysis using validated methods as described: https://www.metabolon.com/what-we-do/our-technology. • conducted unbiased proteomic analysis using validated methods as described: https://www.biognosys.com/technology. Study Endpoints:
This study was a Phase 1, double-blind, placebo-controlled, single-dose study to evaluate the PK, metabolomic, and proteomic profiles of compound A in plasma and CSF in healthy male subjects between the ages of 18 and 55 years. […] Once eligibility criteria were met and the ICF had been signed, subjects were admitted to the CRU on Day-1. On Day 1, intradural and venous catheters were inserted and subjects were randomly assigned to double-blind treatment with a single oral 2400 mg dose of compound A or placebo. The catheter insertion site was assessed on regular basis for early signs of local infection or CSF leakage. Time-matched CSF and blood samples were then collected for 36 hours, after which, the intradural and venous catheters were removed. See FIG. 7 for the study flow chart.
Pharmacokinetic, Metabolomic, and Proteomic Variables: Blood and CSF samples for the PK, metabolomics, and proteomic analysis of compound A were collected at various time points and were processed and analyzed by a validated method for determining concentrations of compound A.
Low CSF concentrations of HVA have been reported to be a marker of depressive symptoms. […] Values represent the ratio of metabolite concentrations for each time point relative to baseline. An increase from baseline is indicated with a single asterisk (*).

[2] = test system: N-methyl-D-aspartate (NMDA) receptor; assay: Nonclinical NMDA receptor modulation / antagonist activity; settings: nonclinical studies
Description: (§1) Compound A [(S)-2-amino-5,5-difluoro-4,4-dimethylpentanoic acid] is a novel, orally bioavailable, specific, small molecule that activates mTORC1 pathway signaling in the brain, including those centers responsible for mood.
NMDA antagonists, in particular ketamine, are associated with mental status changes that have similarity to psychotic or dissociative symptoms seen in psychiatric disorders.

[3] = test system: nonhuman primate model of anxiolytic/depressive behavioral responses; assay: Nonhuman primate model of anxiolytic/depressive behavioral responses; format: in vivo; settings: versus ketamine
Description: as §1

healthy volunteers = assay: Example 1 Part A: safety and tolerability of single ascending doses in healthy volunteers
Description: Up to approximately 48 healthy volunteers were randomly assigned to double-blind treatment. […] The in-house period was 6 days/5 nights. The duration of each subject's participation was up to 39 days, including screen/washout and follow-up.
The study included standard safety and tolerability assessments—e.g., physical, neurological, and psychiatric examinations, vital signs, oral temperature, respiration rate, weight, 12-lead paper electrocardiograms (pECGs), dECGs, clinical laboratory tests, monitoring of adverse events (AEs) and concomitant medications, and, in Part A of the study, cardiovascular (CV) telemetry and safety EEGs.
Subjects were required to abstain from eating or drinking for two hours prior to and after dosing. • Subjects randomized to receive placebo (purified water and Flavor Sweet-SF™): Single dose placebo was administered orally as a solution on Day 1. Subjects were required to abstain from eating or drinking for two hours prior to and after dosing.
An AE is any unfavorable and unintended sign (including an abnormal laboratory finding), symptom, or disease temporally associated with the use of a medical treatment or procedure, whether or not considered related to the medical treatment or procedure. […] An AE term is a unique representation of a specific event used for medical documentation and scientific analyses.
A TEAE is an AE that either commenced following initiation of study treatment or was present prior to study treatment but increased in frequency or severity following initiation of study treatment.

In the case of `CC(C)(C[C@H](N)C(=O)O)C(F)F` [Compound A, (S)-2-amino-5,5-difluoro-4,4-dimethylpentanoic acid], the “onset of effect on key neurotransmitter turnover (GABA, histamine, serotonin, dopamine)” value ([1]; CSF, single oral 2400 mg) was “within two hours of treatment”, the “duration of effect on key neurotransmitter turnover” value ([1]; CSF, single oral 2400 mg, post-dose) was 36 h and the “1-methyl-4-imidazoleacetate, CSF, ratio relative to baseline” value ([1]; 1 h post-dose) was 1.08. For the same compound, the “Carboxyethyl-GABA, CSF, ratio relative to baseline” value ([1]; 1 h post-dose) was 1.12, the “Homovanillate (HVA), CSF, ratio relative to baseline” value ([1]; 1 h post-dose) was 1.08 and the “Hydroxyindoleacetic acid (HIAA), CSF, ratio relative to baseline” value ([1]; 1 h post-dose) was 1.09. For the same compound, the “1-methyl-4-imidazoleacetate, CSF, ratio relative to baseline” value ([1]; 2 h post-dose) was 1.35*, the “Carboxyethyl-GABA, CSF, ratio relative to baseline” value ([1]; 2 h post-dose) was 1.29* and the “Homovanillate (HVA), CSF, ratio relative to baseline” value ([1]; 2 h post-dose) was 1.41*. The “Hydroxyindoleacetic acid (HIAA), CSF, ratio relative to baseline” value ([1]; 2 h post-dose) was 1.28*, the “1-methyl-4-imidazoleacetate, CSF, ratio relative to baseline” value ([1]; 4 h post-dose) was 1.52* and the “Carboxyethyl-GABA, CSF, ratio relative to baseline” value ([1]; 4 h post-dose) was 1.38*. For the same compound, the “Homovanillate (HVA), CSF, ratio relative to baseline” value ([1]; 4 h post-dose) was 1.56*, the “Hydroxyindoleacetic acid (HIAA), CSF, ratio relative to baseline” value ([1]; 4 h post-dose) was 1.1* and the “1-methyl-4-imidazoleacetate, CSF, ratio relative to baseline” value ([1]; 8 h post-dose) was 1.47*. For the same compound, the “Carboxyethyl-GABA, CSF, ratio relative to baseline” value ([1]; 8 h post-dose) was 1.38*, the “Homovanillate (HVA), CSF, ratio relative to baseline” value ([1]; 8 h post-dose) was 1.3* and the “Hydroxyindoleacetic acid (HIAA), CSF, ratio relative to baseline” value ([1]; 8 h post-dose) was 1.22. For the same compound, the “1-methyl-4-imidazoleacetate, CSF, ratio relative to baseline” value ([1]; 12 h post-dose) was 1.56*, the “Carboxyethyl-GABA, CSF, ratio relative to baseline” value ([1]; 12 h post-dose) was 1.4* and the “Homovanillate (HVA), CSF, ratio relative to baseline” value ([1]; 12 h post-dose) was 1.46*. The “Hydroxyindoleacetic acid (HIAA), CSF, ratio relative to baseline” value ([1]; 12 h post-dose) was 1.21, the “1-methyl-4-imidazoleacetate, CSF, ratio relative to baseline” value ([1]; 24 h post-dose) was 1.33* and the “Carboxyethyl-GABA, CSF, ratio relative to baseline” value ([1]; 24 h post-dose) was 1.24*. The “Homovanillate (HVA), CSF, ratio relative to baseline” value ([1]; 24 h post-dose) was 1.34*, the “Hydroxyindoleacetic acid (HIAA), CSF, ratio relative to baseline” value ([1]; 24 h post-dose) was 1.21* and the “1-methyl-4-imidazoleacetate, CSF, ratio relative to baseline” value ([1]; 36 h post-dose) was 1.75*. The “Carboxyethyl-GABA, CSF, ratio relative to baseline” value ([1]; 36 h post-dose) was 1.22*, the “Homovanillate (HVA), CSF, ratio relative to baseline” value ([1]; 36 h post-dose) was 1.41* and the “Hydroxyindoleacetic acid (HIAA), CSF, ratio relative to baseline” value ([1]; 36 h post-dose) was 1.28*. The “NMDA receptor modulation / antagonist activity” value [2] was “not associated with N-methyl-D-aspartate (NMDA) receptor modulation; also recorded: did not demonstrate NMDA antagonist activity”, the pharmacological activity [3] was “comparable to that of ketamine” and the “Number of subjects with ≥1 TEAE” value (healthy volunteers; all doses Total, N = 36) was 13 (36.1) n (%). The “TEAE: Abdominal pain” value (healthy volunteers; all doses Total, N = 36) was 1 n (%), the “TEAE: Abdominal pain lower” value (healthy volunteers; all doses Total, N = 36) was 1 n (%) and the “TEAE: Blood creatine phosphokinase increased” value (healthy volunteers; all doses Total, N = 36) was 1 n (%). The “TEAE: Dermatitis contact” value (healthy volunteers; all doses Total, N = 36) was 3 n (%), the “TEAE: Diarrhea” value (healthy volunteers; all doses Total, N = 36) was 1 n (%) and the “TEAE: Dizziness” value (healthy volunteers; all doses Total, N = 36) was 4 n (%). The “TEAE: Dry mouth” value (healthy volunteers; all doses Total, N = 36) was 1 n (%), the “TEAE: Headache” value (healthy volunteers; all doses Total, N = 36) was 2 n (%) and the “TEAE: Hot flush” value (healthy volunteers; all doses Total, N = 36) was 1 n (%). For the same compound, the “TEAE: Lipase increased” value (healthy volunteers; all doses Total, N = 36) was 1 n (%), the “TEAE: Nausea” value (healthy volunteers; all doses Total, N = 36) was 3 n (%) and the “TEAE: Presyncope” value (healthy volunteers; all doses Total, N = 36) was 1 n (%). For the same compound, the “TEAE: Somnolence” value (healthy volunteers; all doses Total, N = 36) was 1 n (%), the “TEAE: Vomiting” value (healthy volunteers; all doses Total, N = 36) was 1 n (%) and the “Total number of TEAEs” value (healthy volunteers; all doses Total, N = 36) was 22 n (%). For the same compound, the “Number of subjects with ≥1 TEAE” value (healthy volunteers; single oral 150 mg, N = 6) was 2 (33.3) n (%), the “TEAE: Abdominal pain lower” value (healthy volunteers; single oral 150 mg, N = 6) was 1 n (%) and the “TEAE: Dizziness” value (healthy volunteers; single oral 150 mg, N = 6) was 1 n (%). For the same compound, the “Total number of TEAEs” value (healthy volunteers; single oral 150 mg, N = 6) was 3 n (%), the “Number of subjects with ≥1 TEAE” value (healthy volunteers; single oral 300 mg, N = 6) was 2 (33.3) n (%) and the “TEAE: Blood creatine phosphokinase increased” value (healthy volunteers; single oral 300 mg, N = 6) was 1 n (%). For the same compound, the “TEAE: Lipase increased” value (healthy volunteers; single oral 300 mg, N = 6) was 1 n (%), the “Total number of TEAEs” value (healthy volunteers; single oral 300 mg, N = 6) was 2 n (%) and the “Number of subjects with ≥1 TEAE” value (healthy volunteers; single oral 600 mg, N = 6) was 1 (16.7) n (%). For the same compound, the “TEAE: Dizziness” value (healthy volunteers; single oral 600 mg, N = 6) was 1 n (%), the “TEAE: Presyncope” value (healthy volunteers; single oral 600 mg, N = 6) was 1 n (%) and the “Total number of TEAEs” value (healthy volunteers; single oral 600 mg, N = 6) was 1 n (%). The “Number of subjects with ≥1 TEAE” value (healthy volunteers; single oral 1000 mg, N = 6) was 1 (16.7) n (%), the “TEAE: Dizziness” value (healthy volunteers; single oral 1000 mg, N = 6) was 1 n (%) and the “Total number of TEAEs” value (healthy volunteers; single oral 1000 mg, N = 6) was 1 n (%). The “Number of subjects with ≥1 TEAE” value (healthy volunteers; single oral 1600 mg, N = 6) was 4 (66.7) n (%), the “TEAE: Abdominal pain” value (healthy volunteers; single oral 1600 mg, N = 6) was 1 n (%) and the “TEAE: Dermatitis contact” value (healthy volunteers; single oral 1600 mg, N = 6) was 2 n (%). The “TEAE: Diarrhea” value (healthy volunteers; single oral 1600 mg, N = 6) was 1 n (%), the “TEAE: Dizziness” value (healthy volunteers; single oral 1600 mg, N = 6) was 2 n (%) and the “TEAE: Dry mouth” value (healthy volunteers; single oral 1600 mg, N = 6) was 1 n (%). The “TEAE: Headache” value (healthy volunteers; single oral 1600 mg, N = 6) was 1 n (%), the “TEAE: Nausea” value (healthy volunteers; single oral 1600 mg, N = 6) was 1 n (%) and the “TEAE: Somnolence” value (healthy volunteers; single oral 1600 mg, N = 6) was 1 n (%). The “Total number of TEAEs” value (healthy volunteers; single oral 1600 mg, N = 6) was 10 n (%), the “Number of subjects with ≥1 TEAE” value (healthy volunteers; single oral 2400 mg, N = 6) was 3 (50.0) n (%) and the “TEAE: Dermatitis contact” value (healthy volunteers; single oral 2400 mg, N = 6) was 1 n (%). For the same compound, the “TEAE: Headache” value (healthy volunteers; single oral 2400 mg, N = 6) was 1 n (%), the “TEAE: Nausea” value (healthy volunteers; single oral 2400 mg, N = 6) was 2 n (%) and the “TEAE: Vomiting” value (healthy volunteers; single oral 2400 mg, N = 6) was 1 n (%). For the same compound, the “Total number of TEAEs” value (healthy volunteers; single oral 2400 mg, N = 6) was 5 n (%), the “Vitals, labs, and ECG findings” value (healthy volunteers; single oral doses 150-2400 mg) was “unremarkable” and the maximally tolerated dose (healthy volunteers; single oral doses 150-2400 mg) was “not reached”. The safety and tolerability (healthy volunteers; single oral doses 150-2400 mg) was “well tolerated, with no serious adverse events, and no discontinuations due to adverse events”, the “severity of adverse events” value (healthy volunteers; single oral doses 150-2400 mg) was “mild” and the safety and tolerability (healthy volunteers; single oral doses 150-2400 mg, listed as compound A) was “generally safe and well tolerated”. The “BPRS+ and CADSS scores” value (healthy volunteers; single oral doses 150-2400 mg, vs placebo) was “comparable as between the treatment groups”.
